The text below walks through data of publication PMC8772772, “Enantioselective Synthesis and Pharmacological Evaluation of Aza-CGP37157–Lipoic Acid Hybrids for the Treatment of Alzheimer’s Disease” (Antioxidants, 2022).

Like-named read-outs stand apart in the source and are kept apart here. Some results are limits rather than exact numbers.

What is called IC50 is the midpoint of a concentration-inhibition curve. In general, CC50 refers to the concentration giving 50% cytotoxicity. A higher CC50 goes with better tolerance by the cells.

Data set [1] deals with SH-SY5Y neuroblastoma cells. Nature of the data set: Neuroprotection against okadaic acid hyperphosphorylation in SH-SY5Y cells (MTT). To be noted: compound 1 μM 24 h, then compound + OA 24 h; for % Survival: basal = 100, OA alone 54.7; for % Protection: n.p = compound does not protect cells. Format: cell-based, human. Here is the method: (§1) Human neuroblastoma SH-SY5Y cells were plated in 96-well clear multi-well plates (6 × 10^4 cells/well). The potential neuroprotective activity of compounds against OS was evaluated using the rotenone (30 μM) (SigmaAldrich, R8875) and oligomycin A (10 μM) (SigmaAldrich, 75351) (R/O) toxic mixture. Neuroprotection activity against Tau hyperphosphorylation was evaluated by using the okadaic acid (20 nM) model. Cells were pre-incubated with each compound (1 µM) for 24 h, and then treatments were removed and cells were incubated with compounds (1 µM) in the presence the corresponding toxic for additional 24 h. At the end of the experiments, viability was determined by the MTT method. Data were normalized from cell death induced by the toxic stimuli (considered as 100% cell death). Then, the protection percentages were calculated by subtracting from the death induced by toxic stimuli, the death in the presence of the compound.
(§2) The tetrazolium ring of MTT can be cleaved by active dehydrogenases to produce a formazan precipitate. At the end of the experiments, MTT (SigmaAldrich, M2003) stock solution was added to each well to achieve a final concentration of 0.5 mg/mL. Cells were incubated for 2 h. Thereafter, culture media was removed, and DMSO was added to each well to dissolve the formazan precipitate. Finally, absorbance was measured in a microplate reader (SPECTROstar nano, BMG Labtech) at 570 nm. Absorbance obtained in basal conditions was considered as 100% cell viability.
Considering these precedents, we envisaged the evaluation of our compounds in a hyperphosphorylation toxicity model induced by okadaic acid (OA), a protein phosphatase 2A inhibitor [58, 59]. This inhibition causes an imbalance between kinase and phosphatase action, leading to hyperphosphorylation of proteins, in particular, Tau. Thus, treatment of SH-SY5Y neuroblastoma cells with OA is a well-stablished model of Tau hyperphosphorylation. Similarly, to the method used for the OS model, we selected a pre-incubation/co-incubation protocol to evaluate the potential neuroprotection capacity related to the NRF2 induction/antioxidant properties of the compounds. Cells were treated with compounds (±)-6, R-6, S-6 or 7a–d (1 µM) during 24 h; thereafter, cells were co-treated with compounds (1 µM) and OA (20 nM) for a further 24 h. Melatonin was also included as a positive control. Finally, cellular viability was evaluated by the MTT method. […] Finally, the (R,S)-7c diastereomer was not able to afford any protection, a result that might be in line with its low NRF2 induction capacity.

In data set [2] the test system is NRF2. To be noted: AREc32 cells, 24 h; Table S1; ref [2] of the supplement; cited from earlier work.
The test system of data set [3] is SH-SY5Y neuroblastoma cells. Nature of the data set: Neuroprotection against rotenone/oligomycin A oxidative stress in SH-SY5Y cells (MTT). Format: cell-based, human. Particulars: compound 1 μM 24 h, then compound + R/O (30/10 μM) 24 h; for % Survival: basal = 100, R/O alone 53.4. Here is the method: as §1, §2
Thus, we selected a pre-incubation protocol to evaluate their potential neuroprotective capacity based on the NRF2-induction activity and direct antioxidant effect. Compound pre-incubation would induce the expression of antioxidant enzymes regulated by the phase II antioxidant response, thus promoting cells’ survival. The co-incubation period would also evaluate their capacity to trap free radicals produced by intoxicated mitochondria. SH-SY5Y neuroblastoma cells were treated with compounds (1 µM) during 24 h, and then cells were co-incubated with the corresponding compound at the same concentration and the R/O combination (30/10 µM) for additional 24 h. Melatonin, a well-known antioxidant natural neurohormone, was included as a positive control (1 µM). Previously reported racemic derivatives (rac-3a and (rac,R)-3b) and their precursors ((±)-6, R-6 and S-6) were included for comparative purposes at the same concentration.

Another data set relates to BV2 microglial cells. Put plainly: Nitrite production reduction in LPS-stimulated BV2 microglial cells (Griess). In kind it is cell-based, mouse. To be noted: Mus musculus, BV-2; 24 h pretreatment 0.3, 3, 10, 30 μM, then compound + LPS 100 ng/mL 18 h, Griess. How it is done:
BV2 microglial cells were seeded at 2 × 10^4 cells/well and treated with compounds at increasing concentrations during 24 h in complete culture media. Then, treatments were removed, and BV2 cells were co-incubated with compounds and LPS (100 ng/mL) (O127:B8, SigmaAldrich, L3129) for additional 18 h in culture media supplemented with 1% FBS. Each plate included non-treated cells as basal nitrite production. Thereafter, nitrite production was determined by using the modified Griess assay. In brief, samples (150 μL) were mixed with DAPSONE (75 μL) (SigmaAldrich, A74807) and NEDA (75 μL) (SigmaAldrich, 33461), and the mixture was incubated at room temperature for 5 min. Light absorption was measured at 550 nm in a microplate reader (SPECTROstar nano, BMG Labtech). Basal nitrite production was referred to as 100% of nitrite production, and all data were normalized to the basal condition. Concentration needed to reduce nitrite production to 50% was calculated from graphical representation of percentage of nitrite production vs. compound concentration, and data were fitted by non-linear regression and interpolated to 50%.
Chronic neuroinflammation is considered a key pathological event in the early stages of AD development. Among immune cells present at CNS, microglia is related to host defense and tissue repair. Nonetheless, chronic neuroinflammation induced by an adverse environment of protein aggregates and exacerbated OS induces a neurotoxic activity of microglia that, finally, leads to neuronal death. […] To this end, we selected the BV2 microglial cell model stimulated by lipopolysaccharide (LPS), a TLR4 agonist that activates the pro-inflammatory response. CGP37157, R- and S-LA; analogue compounds rac-3a and (rac,R)-3b; and precursor derivatives 6 were included with comparative and reference purposes. Microglial BV2 cells were treated with increasing concentrations of the corresponding compound (0.3, 3, 10 and 30 µM) for 24 h following a pre-incubation protocol. Thereafter, treatments were exchanged by a combination of the corresponding compound at desired concentration and LPS (100 ng/mL) during 18 h. At the end of this period, nitrite production was evaluated by the Griess method as an indirect measurement of iNOS enzyme expression and BV2 activation.
Background: The Griess reaction detects nitrite, a stable product of nitric oxide.

Data set [4] relates to NRF2. Put plainly: NRF2 induction, luciferase expression in AREc32 cell line. In kind it is cell-based. To be noted: AREc32 cells, 0.3, 3, 10 and 30 μM (LA: 0.1–0.6 mM), 24 h; mean ± SEM. How it is done:
AREc32 cell line was kindly shared by Professor Roland Wolf (University of Dundee, UK). AREc32 cells were maintained in DMEM/glutamax/high glucose (Gibco, 61965-06, Madrid, Spain), supplemented with 1% penicillin–streptomycin (10,000 units) (SigmaAldrich, P4333, Madrid, Spain), geneticin (0.8 mg/mL) (Gibco, 11811-031) and 10% FBS (Gibco, 10270106), at 37 °C in a 5% CO2 air atmosphere. Cells were used from passage 4 to 18, and mycoplasma contamination was tested every 4 weeks. AREc32 cells were seeded in 96-well white plates (2 × 10^4 cells/well) for 24 h. Thereafter, cells were treated with each compound (0.3, 3, 10 and 30 µM) in duplicate for 24 h. Non-treated cells were included as basal luciferase expression and tert-butylhydroquinone (TBHQ, 10 μM) as positive control in each plate. Luciferase expression was evaluated by using the Luciferase Assay System (Promega, E1483, Madrid, Spain) by luminescence in an Orion II microplate luminometer (Berthold, Germany). Luciferase activity increase was normalized to basal conditions considered as 1. CD values (concentration required to double the luciferase activity) were calculated from dose–response curves of luciferase fold induction vs. compound concentration, fitted by non-linear regression and data interpolated to value 2.
To evaluate the influence of both stereogenic centers in the NRF2 induction capacity of aza-CGP37157-LA hybrids, we used the AREc32 cell line model by analyzing luciferase expression upon treatment with NRF2 inducers. AREc32 cells were exposed to increasing concentrations of tested compounds 7a–d (0.3, […], 10 and 30 μM) during 24 h; thereafter, luciferase expression was evaluated by luminescent assay to calculate the corresponding CD value (concentration to double luciferase expression). […] TBHQ was included as a positive control, and CGP37157, S- and R-LA, rac-3a and (rac,R)-3b and precursors derivatives (R-6 and S-6) were included for comparative purposes. […] Once R-LA is reduced, it might activate the phase II antioxidant response by acting as pro-oxidant over key Cys residues at KEAP1 to generate the corresponding lipoyl-cystinyl disulphide.

Data set [5] in a line: DPPH reduction assay, antioxidant capacity. To be noted: for IC50: mean ± SEM of three experiments; for DPPH Scavenging at 100 µM, %: compound 100 µM; for DPPH Scavenging at 100 µM, % / DPPH Scavenging at 1mM, %: DPPH 100 µM, 30 min, mean ± SEM; for DPPH Scavenging at 1mM, %: compound 1 mM. Here is the method: Antioxidant capacity was evaluated by using described procedure slightly modified. Compounds (0.1 and 1 mM, final concentration) were diluted in assay media (EtOH/H2O, 70:30) and mixed with 100 μL of DPPH (SigmaAldrich, D9132, Madrid, Spain) solution (100 μM final concentration) in a clear 96-multiwell plate. Final solution was kept in dark for 30 min, and absorbance of DPPH was measured in a SpectroStar Nano plate-reader (BMG Labtech, Ortenberg, Germany) in duplicate at […]. All experiments included a blank (assay media), control (DPPH 100 μM) and a positive control (ascorbic acid, 100 μM). Data were evaluated as % absorbance (Abs) reduction of control after subtracting blank absorbance. % DPPH reduction = [100 − ((Abssample − Absblank) × 100]/Abscontrol
Initially, we evaluated the free-radical-scavenging capacity of derivatives 7a–d in the DPPH assay, based on the capacity of the tested derivatives to react with the 2,2-diphenyl-1-picrylhydracil radical to generate a non-radical derivate. Hybrid derivatives 7a–d were evaluated at two different concentrations (0.1 and 1 mM), considering the activities of previously reported racemic derivatives. […] Ascorbic acid was used as a positive control, and CGP37157, rac-3a and (rac,R)-3b were included as references. […] Those results are similar to those obtained for racemic mixtures 3a and 3b and a mixture of (S,R)-7b and (R,R)-7d obtained from rac-3 and R-lipoic acid.
In general terms: The DPPH test is a chemical assay of radical scavenging.

Data set [6] can be described thus: Cytotoxicity in SH-SY5Y cell line (MTT). Format: cell-based. Particulars: human. Here is the method: SH-SY5Y human neuroblastoma cells were seeded in 96-well clear multi-well plates (6 × 10^4 cells/well). Cells were treated with increasing concentrations of compounds (10, 30 and 100 μM) for 24 h. Thereafter, viability was assessed by the MTT method. Cytotoxic concentration to observe 50% mortality (CC50) values for compounds were interpolated from dose–response curves represented as percentage of cell death vs. concentration of compound, fitted by non-linear regression and data interpolated to value 50.
as §2
In order to evaluate the potential pharmacological profile of new compounds, we first tested the potential neurotoxicity in the neuroblastoma SHSY5Y cell line. Toxicity was evaluated at increasing concentrations (10, 30 and 100 μM), and toxicity was measured as MTT reduction capability. CC50 values were calculated by non-linear regression of curves % survival vs. concentration (Supplementary Materials Figure S2). CGP37157 and previously studied racemic derivatives rac-3a and (rac,R)-3b were included as reference compounds. As previously described, LA is a non-neurotoxic compound at the concentrations texted.

As for `O=C1CN(CCO)C(c2ccccc2Cl)c2cc(Cl)ccc2N1` (racemic) [(±)-6, (rac)-7-Chloro-5-(2-chlorophenyl)-4-(2-hydroxyethyl)-4,5-dihydro-1H-benzo[e][1,4]diazepin-2(3H)-one, reference compound], in data set [1], the “% Survival” value came to 69.1 ± 6.4% and the “% Protection” value was 33.4%. Besides, in the data set on NRF2 [2], the “CD (concentration required to double the specific luciferase activity)” value (shortened to “CD”) was more than 30 µM. The “% Survival” value in data set [3] turned out to be 74.4 ± 4.1%.
On to `O=C(O)CCCC[C@H]1CCSS1` [(S)-Lipoic acid, reference compound], for which the IC50 in the data set with BV2 microglial cells is more than 30 µM. Further, in the data set on NRF2 [4], the “CD” value is more than 600 µM.
Take `O=C1O[C@H]([C@@H](O)CO)C(O)=C1O` [Ascorbic acid, reference compound]: in data set [5], the IC50 came out at 16.2 ± 0.7 µM.
For `O=C1CN(CCO)[C@@H](c2ccccc2Cl)c2cc(Cl)ccc2N1` [Compound R-6, (5R)-7-Chloro-5-(2-chlorophenyl)-4-(2-hydroxyethyl)-4,5-dihydro-1H-benzo[e][1,4]diazepin-2(3H)-one], in data set [1], the “% Survival” value is recorded as 59.3 ± 10.6% and the “% Protection” value was 14.2%. In addition, the “CD” value in the data set with NRF2 [4] came to 11.8 ± 0.5 µM. This compound also came in with a cytotoxic concentration (CC50) at 24 h in data set [6] of more than 100 µM. Also, in data set [5], the “DPPH Scavenging at 100 µM, %” value is 10.30 ± 1.10% and the “DPPH Scavenging at 1mM, %” value turned out to be 26.7 ± 1.3%. In data set [3], the “% Protection” value was 45.7% and the “% Survival” value is recorded as 75.1 ± 2.9%.
As to `O=C1CN(CCO)[C@H](c2ccccc2Cl)c2cc(Cl)ccc2N1` [Compound S-6, (5S)-7-Chloro-5-(2-chlorophenyl)-4-(2-hydroxyethyl)-4,5-dihydro-1H-benzo[e][1,4]diazepin-2(3H)-one], in data set [1], the “% Survival” value stood at 71.5 ± 10.0% and the “% Protection” value came out at 41.9%. The “CD” value in the data set with NRF2 [4] is 14.4 ± 0.2 µM. In addition, the CC50 at 24 h in data set [6] is more than 100 µM. In data set [5], the “DPPH Scavenging at 100 µM, %” value is listed as 8.47 ± 2.42% and the “DPPH Scavenging at 1mM, %” value is reported as 25.3 ± 1.5%. Moreover, in data set [3], the “% Protection” value is 51.5% and the “% Survival” value is recorded as 74.7 ± 2.5%.
Turning to `COc1ccc2[nH]cc(CCNC(C)=O)c2c1` [Mel, Melatonin, reference compound], in data set [1], the “% Survival” value is 70.3 ± 4.3% and the “% Protection” value was 31.1%. In addition, in data set [3], the “% Protection” value was 46.1% and the “% Survival” value was found to be 68.0 ± 1.5%.
Regarding `Cc1c(C)c2c(c(C)c1O)CCC(C)(C(=O)O)O2` (stereo not drawn) [Trolox, reference compound], in data set [5], the “DPPH Scavenging at 100 µM, %” value amounted to 93.4 ± 0.5%; the “DPPH Scavenging at 1mM, %” value is on record as 92.2 ± 0.5%; the IC50 was 11.4 ± 1 µM.
